From patent publication US10266526B2, “Substituted 1,2,3-triazoles as SMYD inhibitors for treating cancer” (EPIZYME, INC., priority 2014, dated 2019) come the findings set out here.

Structures can show the parent of a compound that is named as a salt.

SMYD3, sequence (Q9H7B4 whole entry): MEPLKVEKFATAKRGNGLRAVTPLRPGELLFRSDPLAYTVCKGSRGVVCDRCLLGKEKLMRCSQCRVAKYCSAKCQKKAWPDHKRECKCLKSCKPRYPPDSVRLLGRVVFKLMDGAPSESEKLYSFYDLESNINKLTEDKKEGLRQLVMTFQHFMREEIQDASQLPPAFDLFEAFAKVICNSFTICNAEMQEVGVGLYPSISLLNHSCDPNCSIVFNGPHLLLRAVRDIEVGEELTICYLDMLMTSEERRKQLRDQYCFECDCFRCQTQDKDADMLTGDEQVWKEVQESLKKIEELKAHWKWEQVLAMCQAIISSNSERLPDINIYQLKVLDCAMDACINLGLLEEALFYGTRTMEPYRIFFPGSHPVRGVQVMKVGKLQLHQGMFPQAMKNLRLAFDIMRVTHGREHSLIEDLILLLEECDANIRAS

The target of one assay is SMYD3 (Homo sapiens (Human), UniProt Q9H7B4). Description: SMYD3 biochemical assay (SMYD3 enzyme assay on MEKK2 protein substrate, 3H-SAM scintillation proximity assay). The following applies: Table 1A; average of n = 1 to n = 50; read-out: SMYD3 Biochem IC50. From the text:
S-adenosylmethionine (SAM), S-adenosylhomocysteine (SAH), Tris, Tween20, dimethylsulfoxide (DMSO), bovine skin gelatin (BSG), and Tris(2-carboxyethyl)phosphine hydrochloride solution (TCEP) were purchased from Sigma-Aldrich at the highest level of purity possible. ^3H-SAM was purchase from American Radiolabeled Chemicals with a specific activity of 80 Ci/mmol. 384-well opaque white OptiPlates and SPA beads (Perkin Elmer, catalog # RPNQ0013) were purchased from PerkinElmer.
N-terminally GST-tagged MEKK2 (MAP3K2) protein corresponding to reference sequence AAF63496.3 was purchased from Life Technologies (catalog # PV4010). This protein was expressed in High Five insect cells and purified to >85% purity. Protein identity was confirmed by MS/MS analysis after proteolytic digestion. The protein sequence used was:
Full-length human SMYD3 isoform 1 (BAB86333) was inserted into a modified pET21b plasmid containing a His6 tag and TEV and SUMO cleavage sites.
E. coli (BL21 codonplus RIL strain, Stratagene) were transformed with plasmid pEPZ553 by mixing competent cells and plasmid DNA and incubating on ice for 30 minutes followed by heat shock at 42° C. for 1 minute and cooling on ice for 2 minutes. Transformed cells were grown and selected on LB agar with 100 μg/mL ampicillin and 17 μg/mL chloramphenicol at 37° C. overnight. A single clone was used to inoculate 200 mL of LB medium with 100 μg/mL ampicillin and 17 μg/mL chloramphenicol and incubated at 37° C. on an orbital shaker at 180 rpm. Once in log growth, the culture was diluted 1:100 into 2 L of LB medium and grown until OD600 was about 0.3 after which the culture was incubated at 15° C. and 160 rpm. Once OD600 reached about 0.4, IPTG was added to a final concentration of 0.1 mM and the cells were grown overnight at 15° C. and 160 rpm. Cells were harvested by centrifugation at 8000 rpm, for 4 minutes at 4° C. and stored at −80° C. for purification.
The column was washed with Buffer B (Buffer A plus 20 mM imidazole) and His-tagged SMYD3 was eluted with Buffer C (Buffer A plus 300 mM imidazole). The His tag, TEV and SUMO cleavage sites were removed generating native SMYD3 by addition of ULP1 protein at a ratio of 1:200 (ULP1:SMYD3). Imidazole was removed by dialysis overnight in Buffer A. The dialyzed solution was applied to a second Nickel column and the native SMYD3 protein was collected from the column flow-through. The flow-through was dialyzed in Buffer D (25 mM Tris, 5% glycerol, 5 mM β-mercaptoethanol, 50 mM NaCl, pH7.8) and ULP1 was removed using a Q sepharose fast flow column.
General Procedure for SMYD3 Enzyme Assays on MEKK2 Protein Substrate
The assays were all performed in a buffer consisting of 25 mM Tris-Cl pH 8.0, 1 mM TCEP, 0.005% BSG, and 0.005% Tween 20, prepared on the day of use. […] DMSO (1 ul) was added to Columns 11, 12, 23, 24, rows A-H for the maximum signal control and 1 ul of SAH, a known product and inhibitor of SMYD3, was added to columns 11, 12, 23, 24, rows I-P for the minimum signal control. A cocktail (40 ul) containing the SMYD3 enzyme was added by Multidrop Combi (Thermo-Fisher). The compounds were allowed to incubate with SMYD3 for 30 min at room temperature, then a cocktail (10 ul) containing SAM and MEKK2 was added to initiate the reaction (final volume=51 ul). […] The assays were stopped by the addition of non-radiolabeled SAM (10 ul) to a final concentration of 100 uM, which dilutes the ^3H-SAM to a level where its incorporation into MEKK2 is no longer detectable. Radiolabeled MEKK2 was detected using a scintillation proximity assay (SPA). 10 uL of a 10 mg/mL solution of SPA beads in 0.5 M citric acid was added and the plates centrifuged at 600 rpm for 1 min to precipitate the radiolabeled MEKK2 onto the SPA beads.
Background: In a scintillation proximity assay essentially only radioactivity close to the scintillant gives light.
For the compound `C[C@@H]1C[C@@H](NC(=O)c2ccccc2)CCN1C(=O)C1CCC(N)CC1` (mixture of isomers) [compound 557, (±)-trans-N-(1-(4-aminocyclohexane-1-carbonyl)-2-methylpiperidin-4-yl)benzamide], the IC50 (in general, the concentration needed to halve the response being measured) is greater than 10 µM.
`C[C@@H]1C[C@H](NC(=O)c2ccccc2)CCN1C(=O)C1CCC(N)CC1` (mixture of isomers) [compound 558, (±)-cis-N-(1-(4-aminocyclohexane-1-carbonyl)-2-methylpiperidin-4-yl)benzamide]: the IC50 is greater than 10 µM.
On the same count and under the same terms, next, `C[C@@H]1C[C@@H](NC(=O)c2ccccc2)CCN1S(=O)(=O)CCCN` (racemic) [compound 563, (±)-trans-N-(1-((3-aminopropyl)sulfonyl)-2-methylpiperidin-4-yl)benzamide]: greater than 10 µM.
Still for that read-out and setting: next, `C[C@H]1C[C@@H](NC(=O)c2ccccc2)CCN1C(=O)C1CCC(N)CC1` (mixture of isomers) [compound 567, (±)-cis-N-(1-(4-aminocyclohexane-1-carbonyl)-2-methylpiperidin-4-yl)benzamide]: greater than 10 µM.
Take `CCc1cccc(C(=O)N[C@@H]2CCN(S(=O)(=O)CCCN)[C@H](C)C2)c1` (racemic) [compound 569, (±)-cis-N-(1-((3-aminopropyl)sulfonyl)-2-methylpiperidin-4-yl)-3-ethylbenzamide]: the IC50 came to 8.02 µM.
Take `C[C@H]1C[C@H](NC(=O)c2ccccc2)CCN1C(=O)C1CCC(N)CC1` (mixture of isomers) [compound 571, (±)-trans-N-(1-(4-aminocyclohexane-1-carbonyl)-2-methylpiperidin-4-yl)benzamide]: the IC50 is greater than 10 µM.
On the same count and under the same terms, the result for `CCc1cccc(C(=O)N[C@H]2CCN(S(=O)(=O)CCCN)[C@H](C)C2)c1` (racemic) [compound 573, (±)-trans-N-(1-((3-aminopropyl)sulfonyl)-2-methylpiperidin-4-yl)-3-ethylbenzamide] reads greater than 10 µM; that for `C[C@@H]1C[C@H](NC(=O)c2ccccc2)CCN1S(=O)(=O)CCCN` (stereo in doubt) [compound 564, (±)-cis-N-(1-((3-aminopropyl)sulfonyl)-2-methylpiperidin-4-yl)benzamide], greater than 10 µM; that for `C[C@H]1C[C@@H](NC(=O)c2ccccc2)CCN1S(=O)(=O)CCCN` (stereo in doubt) [compound 570, (±)-cis-N-(1-((3-aminopropyl)sulfonyl)-2-methylpiperidin-4-yl)benzamide], greater than 10 µM.
Turning to `NCCCC(=O)N1CCC(NC(=O)c2ncn[nH]2)CC1` [Cpd. No. 560, N-(1-(4-aminobutanoyl)piperidin-4-yl)-1H-1,2,4-triazole-5-carboxamide], the IC50 was greater than 10 µM.

The same assay, now with this note: read-out: SMYD3 Biochem IC50 (μM)*.
Turning to `Cc1cc(C(=O)N[C@H]2CC[C@H](N)CC2)n(Cc2ccccc2)n1` [Cpd. No. 29, N-((1r,4r)-4-aminocyclohexyl)-1-benzyl-3-methyl-1H-pyrazole-5-carboxamide Hydrochloride], the IC50 was 14 µM.
Still for that read-out and setting: the result for `CC(NC(=O)c1ccc2c(c1)CC(=O)N2)C1CCN(C(=O)[C@H](C)N)CC1` (stereo partly drawn) [Cpd. No. 86, N-(1-(1-((S)-2-aminopropanoyl)piperidin-4-yl)ethyl)-2-oxoindoline-5-carboxamide Hydrochloride] reads 1.43 µM.
On to `CC(NC(=O)c1ccc2[nH]c(=O)[nH]c2c1)C1CCN(C(=O)[C@H](C)N)CC1` (stereo partly drawn) [Cpd. No. 93, N-(1-(1-((S)-2-aminopropanoyl)piperidin-4-yl)ethyl)-2-oxo-2,3-dihydro-1H-benzo[d]imidazole-5-carboxamide], for which the IC50 was determined as 6.76 µM.
Consider `CC(NC(=O)c1ccc2[nH]c(=O)oc2c1)C1CCN(C(=O)[C@H](C)N)CC1` (stereo partly drawn) [Cpd. No. 94, N-(1-(1-((S)-2-aminopropanoyl)piperidin-4-yl)ethyl)-2-oxo-2,3-dihydrobenzo[d]oxazole-6-carboxamide Hydrochloride], for which the IC50 amounted to 3.94 µM.
Still for that read-out and setting: next, `O=C1Cc2cc(C(=O)NCC3CCNCC3)ccc2N1` [Cpd. No. 100, 2-oxo-N-(piperidin-4-ylmethyl)indoline-5-carboxamide Hydrochloride]: 20 µM; `CC(=O)Nc1ccc(S(=O)(=O)N2CCC(NC(=O)c3cccnc3)CC2)cc1` [compound 3, N-(1-((4-acetamidophenyl)sulfonyl)piperidin-4-yl)nicotinamide]: greater than 100 µM.
Same read-out and setting: the result for `CC(=O)Nc1ccc(S(=O)(=O)N2CCC(NC(=O)c3ccncc3)CC2)cc1` [compound 4, N-(1-((4-acetamidophenyl)sulfonyl)piperidin-4-yl)isonicotinamide] reads greater than 100 µM; that for `CC(=O)Nc1ccc(S(=O)(=O)N2CCC(NC(=O)c3cnccn3)CC2)cc1` [compound 5, N-(1-((4-acetamidophenyl)sulfonyl)piperidin-4-yl)pyrazine-2-carboxamide], greater than 100 µM.
The same measure, in the same setting: next, `CC(=O)Nc1ccc(S(=O)(=O)N2CCC(NC(=O)c3cc[nH]n3)CC2)cc1` [compound 6, N-(1-((4-acetamidophenyl)sulfonyl)piperidin-4-yl)-1H-pyrazole-3-carboxamide]: greater than 100 µM; `CC(=O)Nc1ccc(S(=O)(=O)N2CCC(NC(=O)c3ccnn3C)CC2)cc1` [compound 7, N-(1-((4-acetamidophenyl)sulfonyl)piperidin-4-yl)-1-methyl-1H-pyrazole-5-carboxamide]: greater than 100 µM.
With `CC(=O)Nc1ccc(S(=O)(=O)N2CCC(NC(=O)c3cnn(C)c3)CC2)cc1` [compound 8, N-(1-((4-acetamidophenyl)sulfonyl)piperidin-4-yl)-1-methyl-1H-pyrazole-4-carboxamide], the IC50 is greater than 100 µM.
Still for that read-out and setting: the result for `CC(=O)Nc1ccc(S(=O)(=O)N2CCC(NC(=O)c3cn(C)cn3)CC2)cc1` [compound 9, N-(1-((4-acetamidophenyl)sulfonyl)piperidin-4-yl)-1-methyl-1H-imidazole-4-carboxamide] reads 60.5 µM; that for `CC(=O)Nc1ccc(S(=O)(=O)N2CCC(NC(=O)c3cn(C4CC4)nn3)CC2)cc1` [compound 10, N-(1-((4-acetamidophenyl)sulfonyl)piperidin-4-yl)-1-cyclopropyl-1H-1,2,3-triazole-4-carboxamide], 17 µM; that for `N[C@H]1CC[C@H](NC(=O)c2cn(C3CC3)nn2)CC1` [compound 11, N-((1r,4r)-4-aminocyclohexyl)-1-cyclopropyl-1H-1,2,3-triazole-4-carboxamide], 15.4 µM.
With `CC(=O)Nc1ccc(S(=O)(=O)N2CCC(NC(=O)C3CCN(CC4CC4)CC3)CC2)cc1` [compound 12, N-(1-((4-acetamidophenyl)sulfonyl)piperidin-4-yl)-1-(cyclopropylmethyl)piperidine-4-carboxamide], the IC50 was found to be 45.9 µM.
Same read-out and setting: the result for `CCn1ccc(C(=O)N[C@H]2CC[C@H](N)CC2)n1` [compound 13, N-((1r,4r)-4-aminocyclohexyl)-1-ethyl-1H-pyrazole-3-carboxamide] reads 112 µM; that for `CCc1cc(C(=O)N[C@H]2CC[C@H](N)CC2)on1` [compound 14, N-((1r,4r)-4-aminocyclohexyl)-3-ethylisoxazole-5-carboxamide], 104 µM.
Same read-out and setting: the result for `CCn1cnc(C(=O)N[C@H]2CC[C@H](N)CC2)c1` [compound 15, N-((1r,4r)-4-aminocyclohexyl)-1-ethyl-1H-imidazole-4-carboxamide] reads 56.6 µM; that for `CCc1nc(C(=O)N[C@H]2CC[C@H](N)CC2)co1` [compound 16, N-((1r,4r)-4-aminocyclohexyl)-2-ethyloxazole-4-carboxamide], 128 µM.
